Test results reported in publication PMC5367011, “Sterols from Thai Marine Sponge Petrosia (Strongylophora) sp. and Their Cytotoxicity” (Marine Drugs, 2017).

Key:
Type in all cases: cell-based
[1] = system: A549 (human lung cancer); experiment: Cytotoxicity, MTT assay, A549; conditions: for IC50: mean ± S.D. (n = 3), MTT assay
Description: (§1) In our study, several compounds (1–4, 6–8, 10, and 12–16) were evaluated for their cytotoxicity using a panel of human cancer cell lines, including MOLT-3 (acute lymphoblastic leukemia), HepG2 (hepatocarcinoma), A549 (human lung cancer), HuCCA-1 (human chlolangiocarcinoma), HeLa (cervical carcinoma), and MDA-MB-231 (hormone-independent breast cancer) as well as a normal cell line, MRC-5 (normal human embryonic lung fibroblasts).
(§2) The cytotoxic activity toward a panel of mammalian cancer cell lines (HepG2, A549, HuCCA-1, HeLa, MDA-MB-231) were tested using the 3-(4,5-dimethylthiazol-2-yl)-2,5-diphenyltetrazolium bromide (MTT) assay, while the activity toward MOLT-3 cancer cell line was performed by the 2,3-bis-(2-methoxy-4-nitro-5-sulphenyl)-(2H)-tetrazolium-5-carboxanilide (XTT) assay. Etoposide and doxorubicin were used as positive controls (Table 4).

[2] = system: HuCCA-1 (human chlolangiocarcinoma); experiment: Cytotoxicity, MTT assay, HuCCA-1; conditions: for IC50: HuCC-A1, mean ± S.D. (n = 3), MTT assay
Description: as §1, §2

[3] = system: MOLT-3 (acute lymphoblastic leukemia); experiment: Cytotoxicity, XTT assay, MOLT-3; conditions: Homo sapiens; for IC50: mean ± S.D. (n = 3), XTT assay
Description: as §1, §2

[4] = system: HepG2 (hepatocarcinoma); experiment: Cytotoxicity, MTT assay, HepG2; conditions: Homo sapiens; for IC50: HepG-2, mean ± S.D. (n = 3), MTT assay
Description: as §1, §2

[5] = system: MRC-5 (normal human embryonic lung fibroblasts); experiment: Cytotoxicity toward normal cell line MRC-5; conditions: for IC50: MRC5, MRC-5 normal cell line, mean ± S.D. (n = 3)
Description: as §1

[6] = system: HeLa (cervical carcinoma); experiment: Cytotoxicity, MTT assay, HeLa; conditions: Homo sapiens, mean ± S.D. (n = 3)
Description: as §1, §2

[7] = system: MDA-MB-231 (hormone-independent breast cancer); experiment: Cytotoxicity, MTT assay, MDA-MB-231; conditions: Homo sapiens, mean ± S.D. (n = 3)
Description: as §1, §2

| SMILES | IC50 [1] [µM] | IC50 [2] [µM] | IC50 [3] [µM] | IC50 [4] [µM] | IC50 [5] [µM] | other results |
| --- | --- | --- | --- | --- | --- | --- |
| CC1CC1C(C)CC(O)C(O)(CO)[C@H]1CC[C@H]2[C@@H]3CC[C@H]4CC(=O)CC[C@]4(C)[C@H]3C[C@@H](O)[C@]12C (stereo partly drawn) [Compound 14, xestokerol A] | 23.8 ± 1.87 | 34.4 ± 1.83 | 24.4 ± 3.11 | 41.4 ± 3.24 | 65.9 ± 4.54 |  |
| CC(CCC(C)(O)[C@H]1CC[C@H]2[C@@H]3[C@H](O)C[C@H]4CC(=O)CC[C@]4(C)[C@H]3C[C@@H](O)[C@]12C)C1CC1C (stereo partly drawn) [Compound 8, xestokerol B] | 32.6 ± 3.64 | 103 ± 2.29 |  | 18.2 ± 1.86 | 90.1 ± 6.88 | inhibition at 108.7 µM ([3]; at 108.70 μM): 43% |
| C[C@H](CC[C@@H](C)[C@H]1CC[C@H]2[C@@H]3C(=O)C=C4C[C@@H](O)CC[C@]4(C)[C@H]3CC[C@]12C)[C@@H]1C[C@H]1C [Compound 10, 7-oxopetrosterol] | 52.1 ± 3.35 |  |  | 49.8 ± 3.96 | 44.8 ± 1.36 | inhibition at 58.69 µM ([2]; HuCC-A1, at 58.69 μM): 44%; inhibition at 29.34 µM ([3]; at 29.34 μM): 2% |
| COC1(OC)CC[C@@]2(C)C(CC[C@H]3C4CC[C@H]([C@]5([C@@H](O)C[C@@H](C)[C@@H]6C[C@H]6C)CO5)[C@@]4(C)[C@H](O)C[C@@H]32)C1 (stereo partly drawn) [Compound 16, aragusterolketal] | 29.1 ± 8.25 | 34.6 ± 3.85 | 14.6 ± 0.36 | 11.3 ± 9.29 | 49.6 ± 6.67 |  |
| COc1cccc2c1C(=O)c1c(O)c3c(c(O)c1C2=O)C[C@@](O)(C(=O)CO)C[C@@H]3O[C@H]1C[C@H](N)[C@H](O)[C@H](C)O1 [Doxorubicin, reference compound] | 0.92 ± 0.06 | 2.24 ± 0.15 |  | 0.55 ± 0.12 |  | inhibition at 50 µM ([5]; MRC5, MRC-5, at 50.00 μM): 24.9%; IC50 [6]: 0.17 ± 0.1 µM; IC50 [7]: 1.78 ± 0.54 µM |
| C[C@H](CC[C@](C)(O)[C@H]1CC[C@H]2[C@@H]3CC[C@H]4CC(=O)CC[C@]4(C)[C@H]3C[C@@H](O)[C@@]21C)[C@H]1C[C@@H]1C [Compound 7, aragusterol B] | 23.6 ± 2 | 25.1 ± 2.27 | 16.3 ± 18 | 26.5 ± 5.32 |  | IC50 [6]: 11.23 ± 0.05 µM; IC50 [7]: 27 ± 7.79 µM |
| COC1(OC)CC[C@@]2(C)[C@@H](C[C@@H](O)[C@@H]3[C@@H]2C[C@@H](O)[C@@]2(C)[C@H]3CC[C@@H]2[C@@](C)(O)CC[C@@H](C)[C@@H]2C[C@H]2C)C1 [Compound 4, 26,27-cyclo-24,27-dimethylcholestan-3,3-dimethoxy-7α,12β,20β-triol] |  |  |  |  |  | inhibition at 12.35 µM ([1]; at 12.35 μM): 2%; inhibition at 12.35 µM ([2]; HuCC-A1, at 12.35 μM): 0%; inhibition at 12.35 µM ([3]; at 12.35 μM): 0%; inhibition at 24.7 µM ([4]; HepG-2, at 24.70 μM): 20.3%; inhibition at 24.7 µM ([5]; MRC5, MRC-5, at 24.70 μM): 5.45% |
| CC(C)CC=CC(C)(O)C1CCC2C3C(O)CC4CC(=O)CCC4(C)C3CC(O)C21C (stereo not drawn) [Compound 12, 7α,12β,20β-trihydroxycholesta-22E-en-3-one] | 54.3 ± 3.84 | 66.1 ± 0.9 | 36.6 ± 1.11 | 56.5 ± 2.15 | 76.9 ± 10.7 |  |
| C[C@H](CC[C@](C)(O)[C@H]1CCC2[C@@H]3[C@H](O)C=C4C[C@@H](O)CC[C@]4(C)[C@H]3C[C@@H](O)[C@@]21C)[C@@H]1C[C@H]1C (stereo partly drawn) [Compound 3, 26,27-cyclo-24,27-dimethylcholest-5-ene-3β,7α,12β,20β-tetraol] |  | 47.5 ± 6.96 |  | 44.6 ± 9.76 |  | inhibition at 54.35 µM ([1]; at 54.35 μM): 9%; inhibition at 27.17 µM ([3]; at 27.17 μM): 8%; inhibition at 54.35 µM ([5]; MRC5, MRC-5, at 54.35 μM): 24.7% |
| COc1cc([C@@H]2c3cc4c(cc3[C@@H](O[C@@H]3O[C@@H]5CO[C@@H](C)O[C@H]5[C@H](O)[C@H]3O)[C@H]3COC(=O)[C@H]23)OCO4)cc(OC)c1O [Etoposide, reference compound] |  |  | 0.07 ± 0.005 | 31.5 ± 15.6 |  |  |
| CC(CCC(C)(O)C1CCC2C3C(O)CC4CC(O)CCC4(C)C3CC(O)C21C)C1CC1C (stereo not drawn) [Compound 1, 26,27-cyclo-24,27-dimethylcholestan-3α,7α,12β,20β-tetraol] | 20 ± 1.52 | 21.3 ± 1.84 | 17.9 ± 0.26 | 12.7 ± 1.67 | 40.1 ± 1.23 |  |
| COC1(OC)CC[C@@]2(C)C(CC[C@H]3C4CC[C@H]([C@@](O)(CO)[C@H](O)C[C@@H](C)[C@@H]5C[C@H]5C)[C@@]4(C)[C@H](O)C[C@@H]32)C1 (stereo partly drawn) [Compound 13, 26,27-cyclo-24,27-dimethylcholestan-3,3-dimethoxy-12β,21,20α,22α-tetraol] | 17.9 ± 2.26 | 20.8 ± 2.32 | 14.9 ± 0.25 | 12.5 ± 0.84 | 37.7 ± 10.7 |  |
| C[C@H](CC[C@](C)(O)[C@H]1CC[C@H]2[C@@H]3CC[C@H]4C[C@H](O)CC[C@]4(C)[C@H]3C[C@@H](O)[C@@]21C)[C@@H]1C[C@H]1C [Compound 6, aragusterol I] | 34.7 ± 17.7 | 37.06 ± 0.36 | 20.1 ± 0.52 | 54.9 ± 2.04 | 63.4 ± 8.3 |  |
| C[C@@H]1C[C@H]1[C@H](C)C[C@@H](O)[C@@]1([C@H]2CC[C@H]3[C@@H]4CC[C@H]5CC(=O)CC[C@]5(C)[C@H]4C[C@@H](O)[C@]23C)CO1 [Compound 15, aragusterol A] | 37.93 ± 0.07 | 37.6 ± 1.4 | 12.8 ± 0.98 | 7.1 ± 4.76 |  | IC50 [6]: 6.11 ± 0.02 µM; IC50 [7]: 18 ± 5.74 µM |
| C[C@H](CC[C@](C)(O)[C@H]1CC[C@@]2(O)[C@@H]3CC[C@H]4C[C@H](O)CC[C@]4(C)[C@H]3C[C@@H](O)[C@]12C)[C@@H]1C[C@H]1C [Compound 2, 26,27-cyclo-24,27-dimethylcholestan-3α,12β,14,20β-tetraol] | 38.59 ± 0.24 | 37.9 ± 3.01 | 32.4 ± 1.08 | 44.8 ± 3.79 | 60.6 ± 12.8 |  |
